In patent publication US10092620B2, “Uses of cyclic peptides for treating and preventing atherosclerosis” (THE SCRIPPS RESEARCH INSTITUTE, priority 2013, dated 2018):
“Also recorded” adds a separate entry of the source. Non-standard residues stand in square brackets, D forms with d. dNMeW = CN[C@H](Cc1c[nH]c2ccccc12)C(=O)O; dNMeE = CN[C@H](CCC(=O)O)C(=O)O

Assays:
[1] = test system: HDL in human plasma; assay: pre-beta HDL ELISA assay: remodeling HDL in human plasma in vitro; assay type: biochemical
Description: First, various cyclic peptides, including the majority of compounds shown in FIG. 2, were assessed for activities for remodeling HDL in human plasma in vitro. Unlike western blot which was used to generate data shown in FIG. 2, here a pre-beta HDL ELISA assay was used to measure pre-beta HDL levels. Results from the assay are shown in Table 1, which lists the peptides in the order of their activities in remodeling HDL.

[2] = test system: plasma HDL; assay: in vivo plasma HDL remodeling after intraperitoneal injection (Western blotting for mouse apoA-I); conditions: male mice (n=3), i.p. 18-24 mg/kg; FIG. 9
Description: To ascertain if the cyclic D,L-α-peptides function in vivo as modulators of HDL, we administered 1 to mice (BALB/c, n=3) via intraperitoneal injection (i.p.) at a dose of 20 mg/kg. After various times, blood was drawn and the plasma was analyzed by Western blotting to determine the levels of the HDL subpopulations.
In vivo plasma remodeling: Cyclic peptide c[wLwReQeR], 1, was dissolved in 10% sucrose, and sterile filtered through a 0.22-μm syringe filter before injection. Mice were fasted beginning 12 h before dosing, and continued the fast until after the 8-h time point blood draw was completed. Groups of three mice received a 20 mg/kg dose of the cyclic peptide via intraperitoneal injection (0.3 mL). Blood was drawn (30-60 μL) from the retro-orbital sinus into a heparinized capillary tube before dosing (0 min) and at different intervals from 30 min to 8 h after dosing. Plasma was isolated immediately from the whole blood by centrifugation at 5000 rpm for 10 min at 4° C., after which 10 μL of plasma were mixed with 90 μL of 50% sucrose, vortexed for 30 s, and stored at 4° C. until all time points had been collected (samples were stored from 0-8 h). Samples were then mixed with 20 μL of 6× native loading buffer (125 mM tris, pH 6.8, 0.02% bromophenol, 20% glycerol). 6 μL of these samples were loaded onto a 4-20% polyacrylamide gel. Gels were run at constant 80 V at 4° C. for 14 h using a Laemli buffer system (25 mM tris, 192 mM glycine, pH 8.3). Gels were then blotted onto nitrocellulose membranes (0.45 μm, Bio-Rad) at constant 30 V at 4° C. for 2 h using the Laemli buffer (no methanol). The membrane was blocked with 5% non-fat dry milk (NFDM) in TBST (20 mM tris, 150 mM NaCl, pH 7.6, 0.1% Tween-20) for 1 h at 23° C., and then washed once for 10 min with TBST. […]
In vivo plasma HDL remodeling activities of some of the peptides were also analyzed. […] Results shown in the figure were determined by Western blotting for mouse apoA-I.

[3] = test system: LDLr-null mice; assay: in vivo efficacy study: plasma total cholesterol in high-fat-fed LDLr-null mice; design: species or system mouse; conditions: oral 35 mg/kg in drinking water, two weeks, female LDLr-null mice, high-fat diet; FIG. 7
Source text: Encouraged by the above findings, we carried out a 2-week pilot study to determine the effect of 1 on plasma total cholesterol levels. As an animal model, we employed the LDLr-null mouse, which has a human-like lipoprotein profile and is a leading animal model for studying hypercholesterolemia and atherogenesis. Considering that the abiotic nature of cyclic D,L-α-peptides renders them highly resistant to proteolysis, we chose to conduct this pilot in vivo efficacy study via the more convenient oral route of administration. Thus, the cyclic D,L-α-peptide was administered orally in the drinking water for two weeks (each mouse drank ˜0.5 mg peptide per day, or ˜25 mg/kg/day) to mice maintained on a high-fat diet.
(§1) In vivo efficacy study: LDL receptor-null (LDLr^−/−) mice on a C57BL/6J background were initially purchased from Jackson Laboratories (Bar Harbor, Me.) and were bred in house. The mice were weaned at 4 weeks of age and were fed ad libitum a standard chow diet (Harlan Teklad 7019) until they were 10-weeks old, when they were switched to a high-fat Western diet (WD) containing 15.8% (wt/wt) fat, 1.25% (wt/wt) cholesterol, and no cholate (Harlan Teklad 94059). At the time that the WD was started, the test cyclic peptide was added to the drinking water at a high dose of 180 μM (200 μg/mL) or a low dose of 18 μM (20 μg/mL) and the mice (female, n=8 per dosing group) were continued on WD for 10 weeks. The lyophilized peptide was easily dissolved in PBS (pH 7.4) containing 1% sucrose, resulting in a clear solution. The drinking water solution was replaced with fresh solution every day. A control group of eight mice (female, n=8) were fed WD with vehicle (PBS with 1% sucrose) drinking water. The mice consumed approximately 2.5 mL of water per day per mouse, and there was no significant difference in water or food consumption between groups.
Effect of cyclic peptides on plasma total cholesterol: The mice were bled after two weeks of treatment and at the time of harvest (10 weeks). The blood (200 μL) was collected after an overnight fast (14-16 h) by retro-orbital puncture into a heparinized capillary tube at two weeks, or by cardiac puncture into EDTA anti-coagulant coated tubes at the time of harvest (10 weeks). Plasma was separated from whole blood immediately by centrifugation of the blood samples at 5000 rpm for 10 min at 4° C., and was then stored at −80° C. Plasma total cholesterol (TC) was measured using an enzymatic colorimetric method kit (Amplex® red cholesterol assay kit, No. A12216, Life Technologies) according to the manufacturer's instructions.
In addition, several peptides were administered orally to mice at a 35 mg/kg dose (unless otherwise noted) in the drinking water for two weeks. The female LDLr-null mice maintained on a high-fat diet were provided with peptide-treated 1% sucrose/PBS or 1% sucrose/PBS alone as the drinking water ad libitum. Cholesterol levels were then determined. The data are shown in FIG. 7 as a scatter plot along with mean±SD. p values were determined by the one-way ANOVA test with a post hoc Tukey-Kramer test.

[4] = test system: LDLr-null mice; assay: evaluation of atherosclerosis: whole aorta lesion area and aortic sinus lesion volume; assay type: in vivo, mouse; conditions: oral 35 mg/kg in drinking water, 10 weeks, female LDLr-null mice; FIG. 8; 35 mg/kg
Source text: as §1
Evaluation of atherosclerosis: Atherosclerotic lesion severity was assessed in the aortae as previously described in Mullick et al., J. Clin. Invest. 115, 3149-3156, 2005. Briefly, at euthanasia, animals were perfused with PBS, followed by 4% formaldehyde (10% UltraPure EM Grade from Polysciences diluted in PBS, pH 7.2). For en face analysis, the entire mouse aorta was dissected from the proximal ascending aorta to the bifurcation of the iliac artery by using a dissecting microscope. Adventitial fat was removed, and the aorta was opened longitudinally, pinned flat onto black dissecting wax, stained with Sudan IV, and photographed at a fixed magnification. The photographs were digitized, and total aortic areas and lesion areas were calculated by using Adobe Photoshop version CS4, Chromatica V, and NIH Scion Image software (http://rsb.info.nih.gov/nih-image/Default.html). The results were reported as a percentage of the total aortic area that contained lesions.
As a second assessment of atherosclerosis, lesions of the aortic root (heart sinus) were analyzed. Utilizing stereological principles, lesion volume was estimated across a fixed distance of the aortic sinus. […] Lesion areas found only within the valve cusp were measured. […] Lesion volume was calculated from an integration of the measured cross-sectional areas. […]
Other than their in vivo cholesterol reducing activities, several peptides were also examined for ability to inhibit development of atherosclerotic legions in vivo. […] All charts in the figure are shown as a scatter plot along with mean±SD. p values were determined by the one-way ANOVA test with a post hoc Tukey-Kramer test.

Row | Substance | Pre-beta HDL generated (normalized level) ([1]; pre-beta HDL ELISA) | in vivo plasma HDL remodeling, level of lipid-poor pre-beta particles [2] | activity in generating pre-beta HDL (in words) [1] | plasma cholesterol levels (in words) [3] | development of atherosclerotic lesions: whole aorta lesion areas and aortic sinus lesion volumes (in words) [4]
1 | 53 (cyclo([dW]L[dW]K[dH]S[dH]K); SMILES CC(C)C[C@@H]1NC(=O)[C@@H](Cc2c[nH]c3ccccc23)NC(=O)[C@H](CCCCN)NC(=O)[C@@H](Cc2c[nH]cn2)NC(=O)[C@H](CO)NC(=O)[C@@H](Cc2c[nH]cn2)NC(=O)[C@H](CCCCN)NC(=O)[C@@H](Cc2c[nH]c3ccccc23)NC1=O) [compound 53] | 0.79 | able to remodel plasma HDL to increase the level of lipid-poor pre-beta particles |  |  | 
2 | 82 (cyclo(WIW[dW]K[dH]K[dH]); SMILES CC[C@H](C)[C@@H]1NC(=O)[C@H](Cc2c[nH]c3ccccc23)NC(=O)[C@@H](Cc2c[nH]cn2)NC(=O)[C@H](CCCCN)NC(=O)[C@@H](Cc2c[nH]cn2)NC(=O)[C@H](CCCCN)NC(=O)[C@@H](Cc2c[nH]c3ccccc23)NC(=O)[C@H](Cc2c[nH]c3ccccc23)NC1=O) [compound 82] |  | able to remodel plasma HDL to increase the level of lipid-poor pre-beta particles |  |  | 
3 | c[(Me)wLwR(Me)eQeR] (cyclo([dNMeW]L[dW]R[dNMeE]Q[dE]R)) [SEQ ID NO:46] |  |  | negatively affect | negatively affect | remains very effective as the parent compound; also recorded: similarly effective as the parent compound in preventing the development of atherosclerotic lesions
